Source: a compilation of properties of binary mixtures (doi:10.1021/ie501956x)

Test: xn = mol fraction of the nth substance listed
Conditions: 101 kPa

CCO + CC(=O)[O-].CC[n+]1ccn(C)c1
x1 = 1
Conditions | viscosity [mPa·s]
278.15 K | 1.582
288.15 K | 1.31
298.15 K | 1.081
308.15 K | 0.899
328.15 K | 0.638

CC(=O)[O-].CC[n+]1ccn(C)c1 + CCO
viscosity [mPa·s]
Conditions | x2 = 0 | x2 = 0.1 | x2 = 0.201 | x2 = 0.2999 | x2 = 0.4002 | x2 = 0.5001 | x2 = 0.6 | x2 = 0.7 | x2 = 0.8 | x2 = 0.9
278.15 K | 690 | 462 | – | 149.8 | 86.7 | 44.6 | 23.61 | 12.96 | 6.55 | –
288.15 K | – | – | 130.8 | 81.5 | 49.1 | 28.97 | 16.59 | 9.3 | – | 2.751
298.15 K | 139 | 107.7 | 73.3 | 49.2 | – | – | 12.2 | 7.2 | 4.145 | 2.264
308.15 K | 77.3 | 62.8 | 45.4 | – | 21.86 | 14.48 | – | 5.71 | – | 1.885
318.15 K | 47.4 | – | – | – | – | 10.91 | – | 4.64 | 2.829 | –
328.15 K | 31.3 | 26.89 | 21 | 15.99 | 11.82 | 8.49 | 5.84 | – | 2.391 | 1.355
338.15 K | – | 19.14 | 15.4 | 12.05 | 9.18 | 6.77 | 4.79 | 3.218 | – | 1.165
